Measured values taken from patent publication EP2058315A1, “1H-Furo[3,2-C]Pyrazoles active as aurora kinase inhibitors” (Nerviano Medical Sciences S.r.l., priority 2007, dated 2009).
Read-outs that look alike come from different tables or passages of the source.

How the values were obtained:
Aurora-2 = biological target: T1, Aurora-2 (Homo sapiens, UniProt O14965); assay: Inhibition assay of Aurora-2 activity (SPA technology); format: biochemical
T1 sequence (O14965 1-403): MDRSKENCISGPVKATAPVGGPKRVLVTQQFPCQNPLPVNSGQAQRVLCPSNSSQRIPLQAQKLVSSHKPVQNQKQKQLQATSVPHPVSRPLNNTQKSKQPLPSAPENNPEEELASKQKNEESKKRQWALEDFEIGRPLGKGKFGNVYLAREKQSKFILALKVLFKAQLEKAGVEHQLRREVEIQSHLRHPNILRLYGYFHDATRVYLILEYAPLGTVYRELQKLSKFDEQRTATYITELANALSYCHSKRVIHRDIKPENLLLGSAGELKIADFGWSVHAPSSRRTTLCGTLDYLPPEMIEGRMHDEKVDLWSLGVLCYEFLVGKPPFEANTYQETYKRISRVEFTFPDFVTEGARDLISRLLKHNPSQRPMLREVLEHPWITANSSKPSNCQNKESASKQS
Description: The inhibiting activity and the potency of selected compounds is determined through a method of assay based on the use of the SPA technology (Amersham Pharmacia Biotech).
The assay consists of the transfer of radioactivity labelled phosphate moiety by the kinase to a biotinylated substrate. The resulting 33P-labelled biotinylated product is allowed to bind to streptavidin-coated SPA beads (biotin capacity 130 pmol/mg), and light emitted was measured in a scintillation counter.
Kinase reaction: 8 µM biotinylated peptide (4 repeats of LRRWSLG, commercially available from Sigma, catalogue no. L-3523), 10 µM ATP (0.5 uCi P^33γ-ATP), 7.5 ng Aurora 2, inhibitor in a final volume of 30 µl buffer (HEPES 50 mM pH 7.0, MgCl2 10 mM, 1 mM DTT, 0.2 mg/mL BSA, 3 µM orthovanadate) were added to each well of a 96 U bottom well plate. After 60 minutes at room temperature incubation, the reaction was stopped and biotinylated peptide captured by adding 100 µl of bead suspension.
Stratification: 100 µl of CsCl 5 M were added to each well and stood for 4 hours before radioactivity was counted in the Top-Count instrument.
IC50 determination: inhibitors were tested at different concentrations ranging from 0.0015 to 10 µM. Experimental data were analyzed by the computer program GraphPad Prizm using the four parameter logistic equation: y = bottom+(top-bottom)/(1+10^((logIC50-x)*slope)) where x is the logarithm of the inhibitor concentration, y is the response; y starts at bottom and goes to top with a sigmoid shape. Ki calculation: Experimental method: Reaction was carried out in buffer (10 mM Tris, pH 7.5, 10 mM MgCl2, 0.2 mg/mL BSA, 7.5 mM DTT) containing 3.7 nM enzyme, histone and ATP (constant ratio of cold/labeled ATP 1/3000). The reaction was stopped with EDTA and the substrate captured on phosphomembrane (Multiscreen 96 well plates from Millipore). After extensive washing, the multiscreen plates were read on a top counter. Control (time zero) for each ATP and histone concentrations was measured.

[1] = system: human colon cancer cell line HCT-116; assay: In vitro cell proliferation assay; format: cell-based; conditions: HCT-116, 72 hours of treatment, cell count, read-out: Cell Antiproliferation (HCT-116) IC50
Description: The human colon cancer cell line HCT-116 was seeded at 5000 cells/cm^2 in 24 wells plate (Costar) using F12 medium (Gibco) supplemented with 10% FCS (EuroClone, Italy) 2 mM L-glutamine and 1% penicillin/streptomycin and maintained at 37°C, 5% CO2 and 96% relative humidity. The following day, plates were treated in duplicates with 5ul of an appropriate dilution of compounds starting from a 10 mM stock in DMSO. Two untreated control wells were included in each plate. After 72 hours of treatment, medium was withdrawn and cells detached from each well using 0.5 mL of 0.05% (w/v) Trypsin, 0,02% (w/v) EDTA (Gibco). Samples were diluted with 9.5 mL of Isoton (Coulter) and counted using a Multisizer 3 cell counter (Beckman Coulter). Data were evaluated as percent of the control wells: % of CTR = (Treated - Blank)/(Control - Blank).
IC50 values were calculated by LSW/Data Analysis using Microsoft Excel sigmoidal curve fitting. […] See, as an example, the following Table 1 reporting the experimental data of some representative compounds of the invention being tested as Aurora-2 kinase inhibitors (IC50 nM) and for their cell antiproliferative effect (IC50 nM), namely: • Compound (1) is 3-[(Thiophene-2-carbonyl)-amino]-1H-furo[3,2-c]pyrazole-5-carboxylic acid (1-methyl-1-phenyl-ethyl)-amide; • Compound (2) is 3-(4-Morpholin-4-ylmethyl-benzoylamino)-1H-furo[3,2-c]pyrazole-5-carboxylic acid[1-(2-fluoro-phenyl)-1-methyl-ethyl]-amide • Compound (3) is 3-[4-(4-Methyl-piperazin-1-yl)-benzoylamino]-1H-furo[3,2-c]pyrazole-5-carboxylic acid (1-phenyl-cyclopropyl)-amide Table 1

[2] = 10 µM ATP, 60 minutes at room temperature, SPA, read-out: Aurora-2 inhibition IC50
[3] = screened according to the methods of the pharmacology section, read-out: IC50values for Aur2 inhibition

An IC50 (Aurora-2; [2]) of 3 nM, an IC50 (Aurora-2; [3]) of less than 10 nM and an IC50 [1] of 10 nM were found for CC(C)(NC(=O)c1cc2[nH]nc(NC(=O)c3cccs3)c2o1)c1ccccc1 [Compound 1, 3-[(Thiophene-2-carbonyl)-amino]-1H-furo[3,2-c]pyrazole-5-carboxylic acid (1-methyl-1-phenyl-ethyl)-amide] in this work.

An IC50 (Aurora-2; [2]) of 1 nM, an IC50 (Aurora-2; [3]) of less than 10 nM and an IC50 [1] of 2 nM were found for CC(C)(NC(=O)c1cc2[nH]nc(NC(=O)c3ccc(CN4CCOCC4)cc3)c2o1)c1ccccc1F [Compound 2, 3-(4-Morpholin-4-ylmethyl-benzoylamino)-1H-furo[3,2-c]pyrazole-5-carboxylic acid[1-(2-fluoro-phenyl)-1-methyl-ethyl]-amide] in this work. The IC50 ([1]; Homo sapiens, HCT-116, 72 h) was 4 to 10 nM.

An IC50 (Aurora-2; [2]) of 4 nM, an IC50 (Aurora-2; [3]) of less than 10 nM and an IC50 [1] of 4 nM were found for CN1CCN(c2ccc(C(=O)Nc3n[nH]c4cc(C(=O)NC5(c6ccccc6)CC5)oc34)cc2)CC1 [Compound 3, 3-[4-(4-Methyl-piperazin-1-yl)-benzoylamino]-1H-furo[3,2-c]pyrazole-5-carboxylic acid (1-phenyl-cyclopropyl)-amide] in this work. The IC50 ([1]; Homo sapiens, HCT-116, 72 h) was 4 to 10 nM.

An IC50 (Aurora-2; [3]) of less than 10 nM was found for CN1CCN(Cc2ccc(C(=O)Nc3n[nH]c4cc(C(=O)NC(C)(C)c5ccccc5F)oc34)cc2)CC1 [Compound 60, N-[1-(2-fluorophenyl)-1-methylethyl]-3-({4-[(4-methylpiperazin-1-yl)methyl]benzoyl}amino)-1H-furo[3,2-c]pyrazole-5-carboxamide] in this work.

An IC50 (Aurora-2; [3]) of less than 10 nM was found for CC(C)(NC(=O)c1cc2[nH]nc(NC(=O)c3ccoc3)c2o1)c1ccccc1 [Compound 62, 3-(3-furoylamino)-N-(1-methyl-1-phenylethyl)-1H-furo[3,2-c]pyrazole-5-carboxamide] in this work.

An IC50 (Aurora-2; [3]) of less than 10 nM was found for CC(C)(NC(=O)c1cc2[nH]nc(NC(=O)c3ccsc3)c2o1)c1ccccc1 [Compound 63, N-(1-methyl-1-phenylethyl)-3-[(3-thienylcarbonyl)amino]-1H-furo[3,2-c]pyrazole-5-carboxamide] in this work.

An IC50 (Aurora-2; [3]) of less than 10 nM was found for CC(C)(NC(=O)c1cc2[nH]nc(NC(=O)c3cscn3)c2o1)c1ccccc1 [Compound 64, N-(1-methyl-1-phenylethyl)-3-[(1,3-thiazol-4-ylcarbonyl)amino]-1H-furo[3,2-c]pyrazole-5-carboxamide] in this work.

An IC50 (Aurora-2; [3]) of less than 10 nM was found for CN1CCN(c2ccc(C(=O)Nc3n[nH]c4cc(C(=O)NC(C)(C)c5ccccc5F)oc34)cc2)CC1 [Compound 67, N-[1-(2-fluorophenyl)-1-methylethyl]-3-{[4-(4-methylpiperazin-1-yl)benzoyl]amino}-1H-furo[3,2-c]pyrazole-5-carboxamide] in this work.

An IC50 (Aurora-2; [3]) of less than 10 nM was found for CC(C)(NC(=O)c1cc2[nH]nc(NC(=O)c3ccc(OCCN4CCCC4)cc3)c2o1)c1ccccc1 [Compound 68, N-(1-methyl-1-phenylethyl)-3-{[4-(2-pyrrolidin-1-ylethoxy)benzoyl]amino}-1H-furo[3,2-c]pyrazole-5-carboxamide] in this work.

An IC50 (Aurora-2; [3]) of less than 10 nM was found for CC(C)(NC(=O)c1cc2[nH]nc(NC(=O)c3ccc(OCCN4CCCC4)cc3)c2o1)c1ccccc1F [Compound 69, N-[1-(2-fluorophenyl)-1-methylethyl]-3-{[4-(2-pyrrolidin-1-ylethoxy)benzoyl]amino}-1H-furo[3,2-c]pyrazole-5-carboxamide] in this work.

An IC50 (Aurora-2; [3]) of less than 10 nM was found for CC(C)NCc1ccc(C(=O)Nc2n[nH]c3cc(C(=O)NC(C)(C)c4ccccc4)oc23)cc1 [Compound 70, 3-({4-[(isopropylamino)methyl]benzoyl}amino)-N-(1-methyl-1-phenylethyl)-1H-furo[3,2-c]pyrazole-5-carboxamide] in this work.

An IC50 (Aurora-2; [3]) of less than 10 nM was found for CC(C)(NC(=O)c1cc2[nH]nc(NC(=O)c3ccccc3)c2o1)c1ccccc1 [Compound 71, 3-(benzoylamino)-N-(1-methyl-1-phenylethyl)-1H-furo[3,2-c]pyrazole-5-carboxamide] in this work.

An IC50 (Aurora-2; [3]) of less than 10 nM was found for CC(C)(NC(=O)c1cc2[nH]nc(NC(=O)c3ccccc3)c2o1)c1ccccc1F [Compound 72, 3-(benzoylamino)-N-[1-(2-fluorophenyl)-1-methylethyl]-1H-furo[3,2-c]pyrazole-5-carboxamide] in this work.

An IC50 (Aurora-2; [3]) of less than 10 nM was found for CC(C)(NC(=O)c1cc2[nH]nc(NC(=O)c3ccc(CN4CCCC4)cc3)c2o1)c1ccccc1F [Compound 73, N-[1-(2-fluorophenyl)-1-methylethyl]-3-{[4-(pyrrolidin-1-ylmethyl)benzoyl]amino}-1H-furo[3,2-c]pyrazole-5-carboxamide] in this work.

An IC50 (Aurora-2; [3]) of less than 10 nM was found for CC(C)(NC(=O)c1cc2[nH]nc(NC(=O)c3ccc(CN4CCCCC4)cc3)c2o1)c1ccccc1F [Compound 74, N-[1-(2-fluorophenyl)-1-methylethyl]-3-{[4-(piperidin-1-ylmethyl)benzoyl]amino}-1H-furo[3,2-c]pyrazole-5-carboxamide] in this work.

An IC50 (Aurora-2; [3]) of less than 10 nM was found for CC(C)(NC(=O)c1cc2[nH]nc(NC(=O)c3ccc(N4CCOCC4)cc3)c2o1)c1ccccc1 [Compound 75, N-(1-methyl-1-phenylethyl)-3-[(4-morpholin-4-ylbenzoyl)amino]-1H-furo[3,2-c]pyrazole-5-carboxamide] in this work.
